In patent US4731451A, “N-((2-oxo-3(2H)benzothiazolyl)methyl)-2-chloroacetanilides” (Monsanto Company, priority 1980, dated 1988):

Experiments:
Assay type in all cases: in vivo
Barnyardgrass [1] = test: Pre-emergent herbicidal activity (Table II); conditions: 2-3 weeks; further: ranges in brackets are in %
Procedure, shortened: (§1)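 Pre-emergence soil incorporation: compound (solvent or wettable powder suspension) mixed into cover soil over seeds/propagules; greenhouse, subirrigation; percent injury scored on fixed scale at ~2-3 wk after seeding.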

Canada Thistle = test: Pre-emergent herbicidal activity (Table II); conditions: 2-3 weeks; further: ranges in brackets are in %
Procedure, shortened: as §1

Downy Brome [2] = test: Pre-emergent herbicidal activity (Table II); conditions: 2-3 weeks; further: ranges in brackets are in %
Procedure, shortened: as §1

Johnsongrass = test: Pre-emergent herbicidal activity (Table II); conditions: 2-3 weeks; further: ranges in brackets are in %
Procedure, shortened: as §1

Morningglory [3] = test: Pre-emergent herbicidal activity (Table II); conditions: 2-3 weeks; further: ranges in brackets are in %
Procedure, shortened: as §1

Quackgrass = test: Pre-emergent herbicidal activity (Table II); conditions: 2-3 weeks; further: ranges in brackets are in %
Procedure, shortened: as §1

Yellow Nutsedge = test: Pre-emergent herbicidal activity (Table II); conditions: 2-3 weeks; further: ranges in brackets are in %
Procedure, shortened: as §1

Barnyardgrass [4] = test: Pre-emergent herbicidal activity (Table III); further: ranges in brackets are in %
Procedure, shortened: (§2)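 Pre-emergence, soil-incorporated cover layer: known amount of test compound (solvent or wettable powder) mixed into fill soil over seeded pans; greenhouse, bottom-watered; fixed-scale percent-injury rating at ~2-3 wk.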

Cocklebur = test: Pre-emergent herbicidal activity (Table III); further: ranges in brackets are in %
Procedure, shortened: as §2

Crabgrass = test: Pre-emergent herbicidal activity (Table III); further: ranges in brackets are in %
Procedure, shortened: as §2

Downy Brome [5] = test: Pre-emergent herbicidal activity (Table III); further: ranges in brackets are in %
Procedure, shortened: as §2

Hemp Sesbania = test: Pre-emergent herbicidal activity (Table III); further: ranges in brackets are in %
Procedure, shortened: as §2

Lambsquarters = test: Pre-emergent herbicidal activity (Table III); further: ranges in brackets are in %
Procedure, shortened: as §2

Morningglory [6] = test: Pre-emergent herbicidal activity (Table III); further: ranges in brackets are in %
Procedure, shortened: as §2

Panicum = test: Pre-emergent herbicidal activity (Table III); further: ranges in brackets are in %
Procedure, shortened: as §2

Rice = test: Pre-emergent herbicidal activity (Table III); further: ranges in brackets are in %
Procedure, shortened: as §2

Smartweed = test: Pre-emergent herbicidal activity (Table III); further: ranges in brackets are in %
Procedure, shortened: as §2

Sorghum = test: Pre-emergent herbicidal activity (Table III); further: ranges in brackets are in %
Procedure, shortened: as §2

Soybean = test: Pre-emergent herbicidal activity (Table III); further: ranges in brackets are in %
Procedure, shortened: as §2

Sugarbeet = test: Pre-emergent herbicidal activity (Table III); further: ranges in brackets are in %
Procedure, shortened: as §2

Velvetleaf = test: Pre-emergent herbicidal activity (Table III); further: ranges in brackets are in %
Procedure, shortened: as §2

Wheat = test: Pre-emergent herbicidal activity (Table III); further: ranges in brackets are in %
Procedure, shortened: as §2

Wild Buckwheat = test: Pre-emergent herbicidal activity (Table III); further: ranges in brackets are in %
Procedure, shortened: as §2

major Asian rice weeds = test: Selective control of weeds in transplanted rice (summary of Table VI)
Excerpt: In Table VI, data is presented showing the effect of said compound on the major Asian rice weeds Echinochloa crusgalli (EC), Monochoria vaginalis (MV), Cyperus serotinus (CS), Eleocharis kuroguwai (EK) and Sagittaria trifolia (ST) in transplanted rice at rates within the range of 0.25-2.0 lb/A (0.28-2.24 kg/ha); observations were made 18 days after treatment.

## CC1=C(N(Cn2c(=O)sc3ccccc32)C(=O)CCl)C(C)CCC1 (centres unmarked) [Example 1, N-(2,6-dimethyl-1-cyclohexen-1-yl)-N-[(2-oxo-3(2H)-benzothiazolyl)methyl]-2-chloroacetamide]
Barnyardgrass [1]; 5.6 kg/ha
  Herbicidal rating: 3 (75-100)
Barnyardgrass [1]; 11.0 kg/ha
  Herbicidal rating: 3 (75-100)
Canada Thistle; 5.6 kg/ha
  Herbicidal rating: 0 (0-24)
Canada Thistle; 11.0 kg/ha
  Herbicidal rating: 0 (0-24)
Downy Brome [2]; 5.6 kg/ha
  Herbicidal rating: 2 (50-74)
Downy Brome [2]; 11.0 kg/ha
  Herbicidal rating: 2 (50-74)
Johnsongrass; 5.6 kg/ha
  Herbicidal rating: 0 (0-24)
Johnsongrass; 11.0 kg/ha
  Herbicidal rating: 3 (75-100)
Morningglory [3]; 5.6 kg/ha
  Herbicidal rating: 2 (50-74)
Morningglory [3]; 11.0 kg/ha
  Herbicidal rating: 2 (50-74)
Quackgrass; 5.6 kg/ha
  Herbicidal rating: 2 (50-74)
Quackgrass; 11.0 kg/ha
  Herbicidal rating: 2 (50-74)
Yellow Nutsedge; 5.6 kg/ha
  Herbicidal rating: 0 (0-24)
Yellow Nutsedge; 11.0 kg/ha
  Herbicidal rating: 2 (50-74)
Barnyardgrass [4]; 0.0056 kg/ha
  Herbicidal rating: 3 (75-100)
Barnyardgrass [4]; 0.0112 kg/ha
  Herbicidal rating: 3 (75-100)
Barnyardgrass [4]; 0.056 kg/ha
  Herbicidal rating: 3 (75-100)
Barnyardgrass [4]; 0.28 kg/ha
  Herbicidal rating: 3 (75-100)
Barnyardgrass [4]; 1.12 kg/ha
  Herbicidal rating: 3 (75-100)
Barnyardgrass [4]; 5.6 kg/ha
  Herbicidal rating: 3 (75-100)
Cocklebur; 0.0112 kg/ha
  Herbicidal rating: 0 (0-24)
Cocklebur; 0.056 kg/ha
  Herbicidal rating: 0 (0-24)
Crabgrass; 0.0056 kg/ha
  Herbicidal rating: 3 (75-100)
Crabgrass; 0.0112 kg/ha
  Herbicidal rating: 2 (50-74)
Crabgrass; 0.056 kg/ha
  Herbicidal rating: 3 (75-100)
Crabgrass; 0.28 kg/ha
  Herbicidal rating: 3 (75-100)
Crabgrass; 1.12 kg/ha
  Herbicidal rating: 3 (75-100)
Crabgrass; 5.6 kg/ha
  Herbicidal rating: 3 (75-100)
Downy Brome [5]; 0.0056 kg/ha
  Herbicidal rating: 0 (0-24)
Downy Brome [5]; 0.0112 kg/ha
  Herbicidal rating: 1 (25-49)
Downy Brome [5]; 0.056 kg/ha
  Herbicidal rating: 0 (0-24)
Downy Brome [5]; 0.28 kg/ha
  Herbicidal rating: 0 (0-24)
Downy Brome [5]; 1.12 kg/ha
  Herbicidal rating: 3 (75-100)
Downy Brome [5]; 5.6 kg/ha
  Herbicidal rating: 0 (0-24)
Hemp Sesbania; 0.0112 kg/ha
  Herbicidal rating: 1 (25-49)
Hemp Sesbania; 0.056 kg/ha
  Herbicidal rating: 0 (0-24)
Lambsquarters; 0.0056 kg/ha
  Herbicidal rating: 1 (25-49)
Lambsquarters; 0.0112 kg/ha
  Herbicidal rating: 1 (25-49)
Lambsquarters; 0.056 kg/ha
  Herbicidal rating: 1 (25-49)
Lambsquarters; 0.28 kg/ha
  Herbicidal rating: 2 (50-74)
Lambsquarters; 1.12 kg/ha
  Herbicidal rating: 2 (50-74)
Lambsquarters; 5.6 kg/ha
  Herbicidal rating: 1 (25-49)
Morningglory [6]; 0.0056 kg/ha
  Herbicidal rating: 3 (75-100)
Morningglory [6]; 0.0112 kg/ha
  Herbicidal rating: 3 (75-100)
Morningglory [6]; 0.056 kg/ha
  Herbicidal rating: 1 (25-49)
Morningglory [6]; 0.28 kg/ha
  Herbicidal rating: 0 (0-24)
Morningglory [6]; 1.12 kg/ha
  Herbicidal rating: 0 (0-24)
Morningglory [6]; 5.6 kg/ha
  Herbicidal rating: 0 (0-24)
Panicum; 0.0056 kg/ha
  Herbicidal rating: 3 (75-100)
Panicum; 0.0112 kg/ha
  Herbicidal rating: 3 (75-100)
Panicum; 0.056 kg/ha
  Herbicidal rating: 3 (75-100)
Panicum; 0.28 kg/ha
  Herbicidal rating: 3 (75-100)
Panicum; 1.12 kg/ha
  Herbicidal rating: 3 (75-100)
Panicum; 5.6 kg/ha
  Herbicidal rating: 2 (50-74)
Rice; 0.0056 kg/ha
  Herbicidal rating: 1 (25-49)
Rice; 0.0112 kg/ha
  Herbicidal rating: 1 (25-49)
Rice; 0.056 kg/ha
  Herbicidal rating: 0 (0-24)
Rice; 0.28 kg/ha
  Herbicidal rating: 2 (50-74)
Rice; 1.12 kg/ha
  Herbicidal rating: 2 (50-74)
Rice; 5.6 kg/ha
  Herbicidal rating: 2 (50-74)
Smartweed; 0.0056 kg/ha
  Herbicidal rating: 1 (25-49)
Smartweed; 0.0112 kg/ha
  Herbicidal rating: 1 (25-49)
Smartweed; 0.056 kg/ha
  Herbicidal rating: 1 (25-49)
Smartweed; 0.28 kg/ha
  Herbicidal rating: 1 (25-49)
Smartweed; 1.12 kg/ha
  Herbicidal rating: 0 (0-24)
Smartweed; 5.6 kg/ha
  Herbicidal rating: 0 (0-24)
Sorghum; 0.0056 kg/ha
  Herbicidal rating: 0 (0-24)
Sorghum; 0.0112 kg/ha
  Herbicidal rating: 1 (25-49)
Sorghum; 0.056 kg/ha
  Herbicidal rating: 0 (0-24)
Sorghum; 0.28 kg/ha
  Herbicidal rating: 0 (0-24)
Sorghum; 1.12 kg/ha
  Herbicidal rating: 3 (75-100)
Sorghum; 5.6 kg/ha
  Herbicidal rating: 1 (25-49)
Soybean; 0.0056 kg/ha
  Herbicidal rating: 0 (0-24)
Soybean; 0.0112 kg/ha
  Herbicidal rating: 0 (0-24)
Soybean; 0.056 kg/ha
  Herbicidal rating: 1 (25-49)
Soybean; 0.28 kg/ha
  Herbicidal rating: 0 (0-24)
Soybean; 1.12 kg/ha
  Herbicidal rating: 0 (0-24)
Soybean; 5.6 kg/ha
  Herbicidal rating: 1 (25-49)
Sugarbeet; 0.0056 kg/ha
  Herbicidal rating: 0 (0-24)
Sugarbeet; 0.0112 kg/ha
  Herbicidal rating: 0 (0-24)
Sugarbeet; 0.056 kg/ha
  Herbicidal rating: 1 (25-49)
Sugarbeet; 0.28 kg/ha
  Herbicidal rating: 1 (25-49)
Sugarbeet; 1.12 kg/ha
  Herbicidal rating: 1 (25-49)
Sugarbeet; 5.6 kg/ha
  Herbicidal rating: 1 (25-49)
Velvetleaf; 0.0056 kg/ha
  Herbicidal rating: 0 (0-24)
Velvetleaf; 0.0112 kg/ha
  Herbicidal rating: 0 (0-24)
Velvetleaf; 0.056 kg/ha
  Herbicidal rating: 0 (0-24)
Velvetleaf; 0.28 kg/ha
  Herbicidal rating: 0 (0-24)
Velvetleaf; 1.12 kg/ha
  Herbicidal rating: 0 (0-24)
Velvetleaf; 5.6 kg/ha
  Herbicidal rating: 0 (0-24)
Wheat; 0.0056 kg/ha
  Herbicidal rating: 0 (0-24)
Wheat; 0.0112 kg/ha
  Herbicidal rating: 0 (0-24)
Wheat; 0.056 kg/ha
  Herbicidal rating: 0 (0-24)
Wheat; 0.28 kg/ha
  Herbicidal rating: 0 (0-24)
Wheat; 1.12 kg/ha
  Herbicidal rating: 1 (25-49)
Wheat; 5.6 kg/ha
  Herbicidal rating: 0 (0-24)
Wild Buckwheat; 0.0056 kg/ha
  Herbicidal rating: 0 (0-24)
Wild Buckwheat; 0.0112 kg/ha
  Herbicidal rating: 0 (0-24)
Wild Buckwheat; 0.056 kg/ha
  Herbicidal rating: 0 (0-24)
Wild Buckwheat; 0.28 kg/ha
  Herbicidal rating: 0 (0-24)
Wild Buckwheat; 1.12 kg/ha
  Herbicidal rating: 0 (0-24)
Wild Buckwheat; 5.6 kg/ha
  Herbicidal rating: 0 (0-24)
Major Asian rice weeds
  efficacy as a rice herbicide: particularly efficacious as a rice herbicide
Major Asian rice weeds; rates as low as 0.28 kg/ha
  selective weed control: selectively controlled all weeds in the test, except Sagittaria trifolia
